Measured values reported in patent publication US10405547B2, “Substituted cyclic amides as herbicides” (FMC Corporation, priority 2015, dated 2019).

Tests used:
Type in all cases: in vivo
[1] = system: blackgrass (Alopecurus myosuroides); test: Test A postemergence, blackgrass; conditions: visual injury, 0 to 100 scale (0 no effect, 100 complete control), approximately 10 days
How it was run: (§1)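 Ratings use a 0–100 scale, where 0 means no effect and 100 means complete control, and come from visual comparison with untreated plants roughly 10 days after treatment. Compounds were applied in a surfactant-containing, non-phytotoxic solvent, either to soil after seeding or to foliage of small seedlings.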

[2] = system: wheat (Triticum aestivum); test: Test A postemergence, wheat; conditions: visual injury, 0 to 100 scale (0 no effect, 100 complete control), approximately 10 days
How it was run: as §1

[3] = system: foxtail, giant (Setaria faberii); test: Test A postemergence, giant foxtail; conditions: visual injury, 0 to 100 scale (0 no effect, 100 complete control), approximately 10 days
How it was run: as §1

kochia (Kochia scoparia) [4] = test: Test A preemergence, kochia; conditions: 0 to 100 scale (0 no effect, 100 complete control)
How it was run: as §1

[5] = system: ragweed (common ragweed, Ambrosia elatior); test: Test A preemergence, ragweed; conditions: 0 to 100 scale (0 no effect, 100 complete control)
How it was run: as §1

[6] = system: ducksalad (Heteranthera limosa); test: Test B flooded paddy test, ducksalad; conditions: 250 g ai/ha, applied to paddy water, visual rating after 13 to 15 days, scale 0 (no effect) to 100 (complete control)
How it was run: (§2)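 Visual injury ratings against untreated controls, taken 13 to 15 days after compound was added to paddy water standing 3 cm above the soil.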

[7] = system: pigweed (Amaranthus retroflexus); test: Test A postemergence, pigweed; conditions: visual injury, 0 to 100 scale (0 no effect, 100 complete control), approximately 10 days
How it was run: as §1

[8] = system: ragweed (common ragweed, Ambrosia elatior); test: Test A postemergence, ragweed; conditions: visual injury, 0 to 100 scale (0 no effect, 100 complete control), approximately 10 days
How it was run: as §1

[9] = system: ryegrass, Italian (Lolium multiflorum); test: Test A preemergence, Italian ryegrass; conditions: 0 to 100 scale (0 no effect, 100 complete control)
How it was run: as §1

[10] = system: pigweed (Amaranthus retroflexus); test: Test A preemergence, pigweed; conditions: 0 to 100 scale (0 no effect, 100 complete control)
How it was run: as §1

kochia (Kochia scoparia) [11] = test: Test A postemergence, kochia; conditions: visual injury, 0 to 100 scale (0 no effect, 100 complete control), approximately 10 days
How it was run: as §1

[12] = system: sedge, umbrella (small-flower umbrella sedge, Cyperus difformis); test: Test B flooded paddy test, umbrella sedge; conditions: 250 g ai/ha, applied to paddy water, visual rating after 13 to 15 days, scale 0 (no effect) to 100 (complete control)
How it was run: as §2

[13] = system: barnyardgrass (Echinochloa crus-galli); test: Test A preemergence, barnyardgrass; conditions: 0 to 100 scale (0 no effect, 100 complete control)
How it was run: as §1

[14] = system: galium (catchweed bedstraw, Galium aparine); test: Test A postemergence, galium; conditions: visual injury, 0 to 100 scale (0 no effect, 100 complete control), approximately 10 days
How it was run: as §1

rice (Oryza sativa) = test: Test B flooded paddy test, rice; conditions: 250 g ai/ha, applied to paddy water, visual rating after 13 to 15 days, scale 0 (no effect) to 100 (complete control)
How it was run: as §2

[15] = system: barnyardgrass (Echinochloa crus-galli); test: Test A postemergence, barnyardgrass; conditions: visual injury, 0 to 100 scale (0 no effect, 100 complete control), approximately 10 days
How it was run: as §1

[16] = system: ryegrass, Italian (Lolium multiflorum); test: Test A postemergence, Italian ryegrass; conditions: visual injury, 0 to 100 scale (0 no effect, 100 complete control), approximately 10 days
How it was run: as §1

[17] = system: barnyardgrass (Echinochloa crus-galli); test: Test B flooded paddy test, barnyardgrass; conditions: 250 g ai/ha, applied to paddy water, visual rating after 13 to 15 days, scale 0 (no effect) to 100 (complete control)
How it was run: as §2

[18] = system: foxtail, giant (Setaria faberii); test: Test A preemergence, giant foxtail; conditions: 0 to 100 scale (0 no effect, 100 complete control)
How it was run: as §1

corn (Zea mays) = test: Test A postemergence, corn; conditions: visual injury, 0 to 100 scale (0 no effect, 100 complete control), approximately 10 days
How it was run: as §1

O=C1NCC(c2cccc(Oc3ccc(C(F)(F)F)cn3)c2)C1C(=O)Nc1cccc(F)c1F (single isomer, unassigned) [Compound 47]
Plant response rating, Blackgrass ([1]; 125 g ai/ha): 0 | Plant response rating, Blackgrass ([1]; 500 g ai/ha): 20 | Plant response rating, Wheat ([2]; 125 g ai/ha): 0 | Plant response rating, Wheat ([2]; 500 g ai/ha): 30 | Plant response rating, Foxtail, Giant ([3]; 125 g ai/ha): 60 | Plant response rating, Foxtail, Giant ([3]; 500 g ai/ha): 80 | Plant response rating, Kochia (kochia (Kochia scoparia) [4]; 125 g ai/ha): 0 | Plant response rating, Kochia (kochia (Kochia scoparia) [4]; 500 g ai/ha): 0 | Plant response rating, Ragweed ([5]; 125 g ai/ha): 0 | Plant response rating, Ragweed ([5]; 500 g ai/ha): 60 | Plant response rating, Ducksalad (Flood) [6]: 0 | Plant response rating, Pigweed ([7]; 125 g ai/ha): 60 | Plant response rating, Pigweed ([7]; 500 g ai/ha): 70 | Plant response rating, Ragweed ([8]; 125 g ai/ha): 0 | Plant response rating, Ragweed ([8]; 500 g ai/ha): 0 | Plant response rating, Ryegrass, Italian ([9]; 125 g ai/ha): 0 | Plant response rating, Ryegrass, Italian ([9]; 500 g ai/ha): 70 | Plant response rating, Pigweed ([10]; 125 g ai/ha): 0 | Plant response rating, Pigweed ([10]; 500 g ai/ha): 50 | Plant response rating, Kochia (kochia (Kochia scoparia) [11]; 125 g ai/ha): 0 | Plant response rating, Kochia (kochia (Kochia scoparia) [11]; 500 g ai/ha): 60 | Plant response rating, Sedge, Umbrella (Flood) [12]: 0 | Plant response rating, Barnyardgrass ([13]; 125 g ai/ha): 50 | Plant response rating, Barnyardgrass ([13]; 500 g ai/ha): 80 | Plant response rating, Galium ([14]; 125 g ai/ha): 60 | Plant response rating, Galium ([14]; 500 g ai/ha): 70 | Plant response rating, Rice (Flood) (rice (Oryza sativa)): 0 | Plant response rating, Barnyardgrass ([15]; 125 g ai/ha): 70 | Plant response rating, Barnyardgrass ([15]; 500 g ai/ha): 90 | Plant response rating, Ryegrass, Italian ([16]; 125 g ai/ha): 0 | Plant response rating, Ryegrass, Italian ([16]; 500 g ai/ha): 30 | Plant response rating, Barnyardgrass (Flood) [17]: 0 | Plant response rating, Foxtail, Giant ([18]; 125 g ai/ha): 90 | Plant response rating, Foxtail, Giant ([18]; 500 g ai/ha): 90 | Plant response rating, Corn (corn (Zea mays); 125 g ai/ha): 20 | Plant response rating, Corn (corn (Zea mays); 500 g ai/ha): 80

O=C1NCC(c2cccc(Oc3ccc(F)cn3)c2)C1C(=O)Nc1ccccc1F (single isomer, unassigned) [Compound 49]
Plant response rating, Blackgrass ([1]; 125 g ai/ha): 0 | Plant response rating, Blackgrass ([1]; 500 g ai/ha): 40 | Plant response rating, Wheat ([2]; 125 g ai/ha): 0 | Plant response rating, Wheat ([2]; 500 g ai/ha): 40 | Plant response rating, Foxtail, Giant ([3]; 125 g ai/ha): 70 | Plant response rating, Foxtail, Giant ([3]; 500 g ai/ha): 90 | Plant response rating, Kochia (kochia (Kochia scoparia) [4]; 125 g ai/ha): 20 | Plant response rating, Kochia (kochia (Kochia scoparia) [4]; 500 g ai/ha): 70 | Plant response rating, Ragweed ([5]; 125 g ai/ha): 0 | Plant response rating, Ragweed ([5]; 500 g ai/ha): 40 | Plant response rating, Ducksalad (Flood) [6]: 100 | Plant response rating, Pigweed ([7]; 125 g ai/ha): 0 | Plant response rating, Pigweed ([7]; 500 g ai/ha): 20 | Plant response rating, Ragweed ([8]; 125 g ai/ha): 0 | Plant response rating, Ragweed ([8]; 500 g ai/ha): 40 | Plant response rating, Ryegrass, Italian ([9]; 125 g ai/ha): 40 | Plant response rating, Ryegrass, Italian ([9]; 500 g ai/ha): 70 | Plant response rating, Pigweed ([10]; 125 g ai/ha): 0 | Plant response rating, Pigweed ([10]; 500 g ai/ha): 20 | Plant response rating, Kochia (kochia (Kochia scoparia) [11]; 125 g ai/ha): 0 | Plant response rating, Kochia (kochia (Kochia scoparia) [11]; 500 g ai/ha): 0 | Plant response rating, Sedge, Umbrella (Flood) [12]: 0 | Plant response rating, Barnyardgrass ([13]; 125 g ai/ha): 90 | Plant response rating, Barnyardgrass ([13]; 500 g ai/ha): 90 | Plant response rating, Galium ([14]; 125 g ai/ha): 20 | Plant response rating, Galium ([14]; 500 g ai/ha): 70 | Plant response rating, Rice (Flood) (rice (Oryza sativa)): 0 | Plant response rating, Barnyardgrass ([15]; 125 g ai/ha): 80 | Plant response rating, Barnyardgrass ([15]; 500 g ai/ha): 90 | Plant response rating, Ryegrass, Italian ([16]; 125 g ai/ha): 0 | Plant response rating, Ryegrass, Italian ([16]; 500 g ai/ha): 50 | Plant response rating, Barnyardgrass (Flood) [17]: 0 | Plant response rating, Foxtail, Giant ([18]; 125 g ai/ha): 90 | Plant response rating, Foxtail, Giant ([18]; 500 g ai/ha): 90 | Plant response rating, Corn (corn (Zea mays); 125 g ai/ha): 30 | Plant response rating, Corn (corn (Zea mays); 500 g ai/ha): 40
